Experimental findings from patent publication US20200277571A1, “METHOD FOR AMPLIFYING CONE PHOTORECEPTORS OR ROD PHOTORECEPTORS USING DORSALIZATION SIGNAL TRANSMITTER OR VENTRALIZATION SIGNAL TRANSMITTER” (RIKEN, priority 2017, published 2020) are described below.

For one data set, the system named is ALDH1A3 gene. Description: Quantitative PCR of ALDH1A3 gene expression in retinal tissue. The note with it: about day 70-75, 0.15 nM BMP4, 100 nM LDN193189, 100 nM SAG from day 22. It is filed as cell-based, human. Here is the method:
(§1) [1] Control group (FIG. 2a, f, k, p); according to the method described in Example 1, culture was performed up to day 70 or day 75 from the start of suspension culture and without addition. [2]+BMP group (FIG. 2b, g, 1, q); 0.15 nM BMP4 was added from day 22 from the start of suspension culture to completion of suspension culture, and cultured up to day 70 or day 75 from the start of suspension culture. [3]+Cyclopamine-KAAD group (FIG. 2c, h, m, r); 500 nM Cyclopamine-KAAD was added from day 22 from the start of suspension culture to completion of the suspension culture, and cultured up to day 70 or day 75 from the start of suspension culture. [4]+LDN193189 group (FIG. 2d, i, n, s); 100 nM LDN193189 was added from day 22 from the start of suspension culture to completion of the suspension culture, and cultured up to day 70 or day 75 from the start of suspension culture. [5]+SAG group (FIG. 2e, j, o, t); 100 nM SAG was added from day 22 from the start of suspension culture to completion of the suspension culture, and cultured up to day 70 or day 75 from the start of suspension culture.
RNA was extracted from retinal tissue on about day 70-75 from the start of suspension culture and prepared under the same conditions, cDNA was synthesized, and the ALDH1A3 gene expression level was analyzed by quantitative PCR. As a result, the expression level of the ALDH1A3 gene was suppressed in +BMP4 group as compared to the Control (NUC) group, and the expression was promoted in +LDN193189 group, +SAG group (FIG. 7, white bar (d70) in graph), as similarly observed by immunostaining. In addition, RNA was extracted from retinal tissue on about day 40-44 from the start of suspension culture and cultured under the same conditions except the culture period, cDNA was synthesized, and the ALDH1A3 gene expression level was analyzed by quantitative PCR. As a result, the expression level scarcely changed on about day 40 from the start of suspension culture as compared to on about day 70 from the start of suspension culture and difference was not found (FIG. 7, black bar (d40) in graph).

Data set [1] has as its system OTX2-positive and OC2-positive cells in retinal tissue produced from human ES cells. Description: Immunostaining for OTX2 and OC2 of retinal tissue, day 70-75, image analysis (Image J). It is filed as cell-based. Particulars: for number of OTX2-positive cells versus Control (NUC) group / OC2-positive cells: 0.15 nM BMP4, 500 nM Cyclopamine-KAAD; for number of OTX2-positive cells versus Control (NUC) group: 100 nM LDN193189, 100 nM SAG from day 22; for OC2-positive cells: 100 nM LDN193189 or 100 nM SAG from day 22, Control (NUC) about 26.4%; for expression level (intensity of immunostained fluorescence) of OC2 as compared to the Control (NUC) group, on average: 0.15 nM BMP4 or 500 nM Cyclopamine-KAAD from day 22. From the text:
Here, the proportion of the number of OC2-positive cells contained in the neural retinal tissue can be determined by those of ordinary skill in the art by performing conventionally possible immunostaining and the like by using an anti OC2 antibody, DAPI and the like, measuring the number of OC2-positive cells, the number of DAPI-positive cells and the like, and identifying the ratio thereof contained in a neural retinal tissue. The expression level of OC2 protein can be determined by those of ordinary skill in the art by performing conventionally possible immunostaining and the like by using an anti OC2 antibody, DAPI and the like, and analyzing the region stained by an anti OC2 antibody by using image analysis software such as Image J and the like to identify the signal intensity of OC2-positive cells. Alternatively, the proportion of the number of OC2-positive cells contained in a neural retinal tissue and/or the OC2 protein expression level of OC2-positive cell may be identified by analysis using conventional flow cytometry using an antibody against OC2 protein.
A cell aggregate containing a retinal tissue was prepared by the method described in “Kuwahara et al. Nat Commun 2015, 19(6), 6286-” after modification in part. That is, the aforementioned cultured ES cells were individually dispersed using TrypLE Express (Invitrogen), and the individually dispersed human ES cells were suspended in 100 μL of a serum-free medium in a cell non-adhesive 96 well plate (SUMILON spheroid plate, SUMITOMO BAKELITE CO., LTD.) at 9×10^3 cells per well to allow rapid formation of aggregates, after which they were cultured at 37° C., 5% CO2. As the serum-free medium therefor, a serum-free medium obtained by adding 10% KSR, 450 μM 1-monothioglycerol, 1× Chemically defined lipid concentrate, 5 mg/mL BSA, 20 μM Y27632 to a 1:1 mixture of F-12 medium and IMDM medium was used. At 6 days after the start of suspension culture, BMP4 at a final concentration of 1.5 nM was added and suspension culture was continued. A half amount of the culture medium in the well was exchanged with the above-mentioned medium not supplemented with a BMP signal transduction pathway agonist every 3 or 4 days. A cell aggregate containing a retinal tissue at day 18 from the start of suspension culture was cultured in suspension in a serum-free medium (DMEM/F12 medium supplemented with 1% N2 supplement) containing 3 μM CHIR99021 and 5 μM SU5402 for 4 days, namely, up to day 22 from the start of suspension culture. Thereafter, suspension culture of the cell aggregate containing the retinal tissue was continued until it was appropriately used for analysis and the like. As the culture medium during this period, serum-containing media shown in the following to [3] were used and the cell aggregate was cultured under 5% CO2 conditions.
[1] day 22 to day 38 from the start of suspension culture; DMEM/F12 medium supplemented with 10% fetal calf serum, 1% N2 supplement, and 100 μM taurine. day 38 to day 60 from the start of suspension culture; a 1:3 mixed medium of DMEM/F12 medium supplemented with 10% fetal calf serum, 1% N2 supplement, and 100 μM taurine, and Neurobasal medium supplemented with 10% fetal calf serum, 2% B27 supplement, and 100 μM taurine. after day 60 from the start of suspension culture; Neurobasal medium supplemented with 10% fetal calf serum, 2% B27 supplement, and 100 μM taurine.
[1] Control group (FIG. 2a, f, k, p); according to the method described in Example 1, culture was performed up to day 70 or day 75 from the start of suspension culture and without addition. [2]+BMP group (FIG. 2b, g, 1, q); 0.15 nM BMP4 was added from day 22 from the start of suspension culture to completion of suspension culture, and cultured up to day 70 or day 75 from the start of suspension culture. […]

Another data set deals with CYP26A1 gene. Description: Quantitative PCR of CYP26A1 gene expression in retinal tissue. It is filed as cell-based, human. Particulars: about day 70, 0.15 nM BMP4 or 100 nM LDN193189 from day 22. On the procedure:
as §1
On the other hand, using cDNA on about day 70 from the start of suspension culture, the expression level of CYP26A1 gene was analyzed. […]

Data set [2] relates to photoreceptor precursor and cone photoreceptor precursor in retinal tissue produced from human ES cells. As to the kind of experiment: Immunostaining for CRX and TRβ2 and CRX::Venus fluorescence observation of retinal tissue, day 70-75 of suspension culture. It is filed as cell-based.

With “BMP4: BMP protein; BMP signal transduction pathway agonist used as dorsalization signal transmitter”, the “expression level of the ALDH1A3 gene versus Control (NUC) group” value in the data set with ALDH1A3 gene is listed as “suppressed”. Besides, in data set [1], the “number of OTX2-positive cells versus Control (NUC) group” value is recorded as “higher”; the OC2-positive cells entry was “about 16.0%”; the “expression level (intensity of immunostained fluorescence) of OC2 as compared to the Control (NUC) group, on average” value is “about 36%”. In the data set on CYP26A1 gene, the “expression of CYP26A1 gene” value was “promotes”. In addition, in data set [2] (0.45 nM BMP4 from day 22), the “CRX::Venus-positive cells as compared with group added with 0.15 nM BMP4” value is “became less”. The “CRX::Venus-positive cells as compared with group added with 0.15 nM BMP4” value in data set [2] (1.35 nM BMP4 from day 22) is reported as “became less”.

Consider `CC1=C2C[C@H]3[C@@H](CC=C4CC(=O)CC[C@@]43C)[C@@H]2CC[C@]12O[C@@H]1C[C@H](C)CN(CCNC(=O)CCCCCNC(=O)CCc3ccccc3)[C@H]1[C@H]2C` [Cyclopamine-KAAD], for which, in data set [1], the “number of OTX2-positive cells versus Control (NUC) group” value is “higher”; the OC2-positive cells is recorded as about 16.7%; the “expression level (intensity of immunostained fluorescence) of OC2 as compared to the Control (NUC) group, on average” value is listed as “about 64%”.

As for `c1ccc2c(-c3cnn4cc(-c5ccc(N6CCNCC6)cc5)cnc34)ccnc2c1` [LDN193189, 4-[6-(4-piperazin-1-ylphenyl)pyrazolo[1,5-a]pyrimidin-3-yl]quinoline], in the data set with ALDH1A3 gene, the “expression level of the ALDH1A3 gene versus Control (NUC) group” value is “promoted”. Besides, in data set [1], the “number of OTX2-positive cells versus Control (NUC) group” value was “lower” and the OC2-positive cells is about 35.1%. Moreover, in the data set with CYP26A1 gene, the “expression of CYP26A1 gene” value was “suppresses”.

For `CNC1CCC(N(Cc2cccc(-c3ccncc3)c2)C(=O)c2sc3ccccc3c2Cl)CC1` (centres unmarked) [SAG], the “expression level of the ALDH1A3 gene versus Control (NUC) group” value with ALDH1A3 gene is recorded as “promoted”. Also, in data set [1], the “number of OTX2-positive cells versus Control (NUC) group” value is “lower” and the OC2-positive cells was about 27.3%.
